Patent publication US12595504B2, “Methods for screening compounds for bactericidal activity and for determining the sensitivity of bacterial samples” (priority 2020, dated 2026)
In brackets after ≈: the same amount, converted by molar mass. Where two headings read alike, the source gives them in different places.

Assays:
Escherichia coli MG1655 = assay: Antibiotic MIC determination (serial twofold dilutions, OD600 during 17 hours at 37° C.); type: cell-based; conditions: Escherichia coli
Method: The Minimal Inhibitory Concentration (MIC) of the antibiotics was determined under the same culture conditions as the tests using the ATP assay kit. […] An exponentially growing culture (OD600=0.3) was added to each well (60 μl/well) of a sterile microtiter plate containing the test concentration of antibiotic (40 μl/well). The volume was completed to 120 μl with medium and OD600 nm measurements were performed using a microtiter plate reader (Infinite 200 PRO, TECAN) during 17 hours at 37° C.
In all the following experiments, the MIC values were measured for each antibiotic with parameters such as temperature, OD600 and equipment identical to those used for the bioluminescence assay.

[1] = system: E. coli MG1655 reporter cells; type: cell-based, Escherichia coli; conditions: for Lag before ATP release (shortest, incompressible value): highest concentrations tested
Method: The classical luciferase was from Molecular Probes (ATP Determination Kit (A22066)). The thermostable luciferase was from “CheckLite AT100” (kikkoman). The Luciferin-luciferase reagents were prepared following manufacturer instructions. Bacteria from exponentially growing cultures (OD600=0.3) were added to each well (60 μl/well) of a black 96-microtiter plate (Greiner Bio-one, 655076) and 20 μl of the luciferin-luciferase reagent solution was added. The microtiter plate was incubated 5 min at 37° C. for reaction with the luciferase to eliminate traces of extracellular ATP. Then 40 μl of antibiotic solution (3 times concentrated) prepared in the culture medium were added. Bioluminescence of each well was monitored for 4 hours under shaking (218 rpm) and at 28 or 37° C., depending on the experiments (see legends of Figures). The reagent stability in presence or absence of antibiotics was checked in control experiments without bacteria but with 4 pmoles of ATP. Tests were also performed in 384-microtiter plates (Greiner Bio-one, 784076).
Aminoglycosides are bactericidal antibiotics causing translational miscoding with lethal consequences for the cell. Leakage of small molecules following an aminoglycoside shock was previously identified by different methods including radiolabelling. Therefore, the inventors investigated the response of live cells to aminoglycoside stress.

[2] = MG1655, read-out: MIC in MOPS glucose 0.4%, MOPS minimal medium glucose 0.4%, 37° C.
[3] = MG1655, LB medium, OD600 0.15 final, 37° C., read-out: MIC in LB
[4] = antibiotic at 3.125 μg/mL, LB, 37° C.
[5] = antibiotic at 6.25 μg/mL, LB, 37° C.
[6] = antibiotic at 12.5 μg/mL, LB, 37° C.
[7] = antibiotic at 25 μg/mL, LB, 37° C.
[8] = antibiotic at 50 μg/mL, LB, 37° C.
[9] = antibiotic at 100 μg/mL, LB, 37° C.
[10] = MOPS minimal medium (glucose 0.4%), FIG. 11
[11] = antibiotic at 200 μg/mL, LB, 37° C.

SMILES | MIC (Escherichia coli MG1655; [2]) | MIC (Escherichia coli MG1655; [3]) | Lag time before ATP [1, 6] | Lag time before ATP [1, 7] | Lag time before ATP [1, 8] | also measured
NCC[C@H](O)C(=O)N[C@@H]1C[C@H](N)[C@@H](O[C@H]2O[C@H](CN)[C@@H](O)[C@H](O)[C@H]2O)[C@H](O)[C@H]1O[C@H]1O[C@H](CO)[C@@H](O)[C@H](N)[C@H]1O [Amikacin] | 1.56 µg/mL (≈ 2.66 µM) | 12.5 µg/mL (≈ 21.3 µM) | 21.6 min | 16.0 min | 10.5 min | Shape of ATP release trace ([1]; LB medium, 37° C., FIG. 8): bi-phasic; Lag time before ATP [1, 4]: 42 min; Lag time before ATP [1, 5]: 31.0 min
CC1(C)S[C@@H]2[C@H](NC(=O)[C@H](N)c3ccc(O)cc3)C(=O)N2[C@H]1C(=O)O [Amoxicillin] | 12.5 µg/mL (≈ 34.2 µM) | 12.5 µg/mL (≈ 34.2 µM) | 11.4 min | 8 min | 6.9 min | Lag time before ATP [1, 4]: 39.3 min; Lag time before ATP [1, 5]: 31.4 min
CC1(C)S[C@@H]2[C@H](NC(=O)[C@H](N)c3ccccc3)C(=O)N2[C@H]1C(=O)O [Ampicillin] | 25 µg/mL (≈ 71.5 µM) | 25 µg/mL (≈ 71.5 µM) | 43 min | 23 min | 13 min | Shape of ATP release trace ([1]; LB medium, 37° C., FIG. 8): multiphasic; Intensity of ATP release signal in minimal medium compared to rich medium (factor of decrease) ([1]; MOPS minimal medium vs LB): 10; Lag time before ATP [1, 5]: 108 min; Lag time before ATP [1, 9]: 9 min; Lag before ATP release (shortest, incompressible value) ([1]; LB, 37° C.): 9 min
CN[C@@H]1[C@@H](O[C@H]2O[C@H](CO)[C@@H](N)[C@H](O)[C@H]2O)OC2C[C@@H](N)[C@@H](O[C@H]3[C@H](O)[C@@H](O)[C@H](N)C[C@@H]3N)OC2[C@@H]1O (stereo partly drawn) [Apramycin] | 2.5 µg/mL (≈ 4.63 µM) | 20.2 µg/mL (≈ 37.4 µM) |  |  |  | Shape of ATP release trace ([1]; LB medium, 37° C., FIG. 8): bi-phasic; Shape of ATP release trace [1, 10]: monophasic; Lag time before ATP ([1]; antibiotic at 6.75 μg/mL, LB, 37° C.): 60.9 min; Lag time before ATP ([1]; antibiotic at 13.5 μg/mL, LB, 37° C.): 30.0 min; Lag time before ATP ([1]; antibiotic at 27 μg/mL, LB, 37° C.): 13.3 min; Lag time before ATP ([1]; antibiotic at 54 μg/mL, LB, 37° C.): 10.9 min; Lag before ATP release (shortest, incompressible value) ([1]; LB, 37° C.): ~10.9 min
CC[C@H]1OC(=O)[C@H](C)[C@@H](O[C@H]2C[C@@](C)(OC)[C@@H](O)[C@H](C)O2)[C@H](C)[C@@H](O[C@@H]2O[C@H](C)C[C@H](N(C)C)[C@H]2O)[C@](C)(O)C[C@@H](C)CN(C)[C@H](C)[C@@H](O)[C@]1(C)O [Azithromycin] | 125 µg/mL (≈ 167 µM) | 175 µg/mL (≈ 234 µM) |  |  |  | High dose at which ATP release was observed ([1]; LB, FIG. 9): 2.5 times the MIC; ATP leakage ([1]; highest concentration (400 μg/mL), MOPS minimal medium (glucose 0.4%)): stimulated a ATP leakage
C=CC1=C(C(=O)O)N2C(=O)[C@@H](NC(=O)/C(=N\OCC(=O)O)c3csc(N)n3)[C@H]2SC1 [Cefixime] | 50 µg/mL (≈ 110 µM) | 50 µg/mL (≈ 110 µM) | 17.5 min | 16.7 min | 15.2 min | Lag time before ATP [1, 9]: 14.9 min; Lag time before ATP [1, 11]: 14.2 min
CO[C@@]1(NC(=O)Cc2cccs2)C(=O)N2C(C(=O)O)=C(COC(N)=O)CS[C@@H]21 [Cefoxitin] | 100 µg/mL (≈ 234 µM) | 50 µg/mL (≈ 117 µM) | 10.9 min | 6.1 min | 4.9 min | Lag time before ATP [1, 9]: 4.9 min; Lag time before ATP [1, 11]: 4.9 min
CC(C)(O/N=C(\C(=O)N[C@@H]1C(=O)N2C(C(=O)[O-])=C(C[n+]3ccccc3)CS[C@H]12)c1csc(N)n1)C(=O)O [Ceftazidime] | 100 µg/mL (≈ 183 µM) | 100 µg/mL (≈ 183 µM) |  | 40.3 min | 8.6 min | Lag time before ATP [1, 9]: 8.3 min; Lag time before ATP [1, 11]: 8.0 min; Lag time before ATP ([1]; antibiotic at 400 μg/mL, LB, 37° C.): 7.8 min
CO/N=C(\C(=O)N[C@@H]1C(=O)N2C(C(=O)O)=C(CSc3nc(=O)c(=O)[nH]n3C)CS[C@H]12)c1csc(N)n1 [Ceftriaxone] | 6.25 µg/mL (≈ 11.3 µM) | 12.5 µg/mL (≈ 22.5 µM) | 19.2 min | 16.5 min | 13.9 min | Lag time before ATP [1, 4]: 29.7 min; Lag time before ATP [1, 5]: 21.2 min
CC1=C(C(=O)O)N2C(=O)[C@@H](NC(=O)[C@H](N)c3ccccc3)[C@H]2SC1 [Cephalexin] | 17.4 µg/mL (≈ 50.1 µM) | 34.7 µg/mL (≈ 99.9 µM) |  |  |  | Shape of ATP release trace ([1]; LB medium, 37° C., FIG. 8): multiphasic; Shape of ATP release trace [1, 10]: monophasic; Lag time before ATP ([1]; antibiotic at 8.8 μg/mL, LB, 37° C.): 34.3 min; Lag time before ATP ([1]; antibiotic at 17.5 μg/mL, LB, 37° C.): 9.45 min; Lag time before ATP ([1]; antibiotic at 35 μg/mL, LB, 37° C.): 5 min; Lag time before ATP ([1]; antibiotic at 70 μg/mL, LB, 37° C.): 3.6 min; Lag time before ATP ([1]; antibiotic at 140 μg/mL, LB, 37° C.): 3.6 min; Lag before ATP release (shortest, incompressible value) ([1]; LB, 37° C.): 3.6 min
O=C(N[C@H](CO)[C@H](O)c1ccc([N+](=O)[O-])cc1)C(Cl)Cl [Chloramphenicol] | 25 µg/mL (≈ 77.4 µM) | 25 µg/mL (≈ 77.4 µM) |  |  |  | ATP leakage ([1]; high concentrations, twice or four times the MIC, LB, FIG. 9): important leakage
O=C(O)c1cn(C2CC2)c2cc(N3CCNCC3)c(F)cc2c1=O [Ciprofloxacin] | 6.25 µg/mL (≈ 18.9 µM) | 25 µg/mL (≈ 75.4 µM) |  |  |  | 
CC[C@H]1OC(=O)[C@H](C)[C@@H](O[C@H]2C[C@@](C)(OC)[C@@H](O)[C@H](C)O2)[C@H](C)[C@@H](O[C@@H]2O[C@H](C)C[C@H](N(C)C)[C@H]2O)[C@](C)(O)C[C@@H](C)C(=O)[C@H](C)[C@@H](O)[C@]1(C)O [Erythromycin] | 1600 µg/mL (≈ 2180 µM) | 400 µg/mL (≈ 545 µM) |  |  |  | Amplitude of ATP release ([1]; bacteriostatic antibiotics, LB, FIG. 9): very weak amplitude
C[C@@H]1O[C@@H]1P(=O)(O)O [Fosfomycin] | 100 µg/mL (≈ 724 µM) | 50 µg/mL (≈ 362 µM) | 28.6 min | 26.2 min | 21.8 min | Lag time before ATP [1, 9]: 20.2 min; Lag time before ATP [1, 11]: 18.6 min
NC[C@H]1O[C@H](O[C@H]2[C@H](O)[C@@H](O[C@H]3O[C@H](CO)[C@@H](O)[C@H](N)[C@H]3O)[C@H](N)C[C@@H]2N)[C@H](O)[C@@H](O)[C@@H]1O [Kanamycin] | 3 µg/mL (≈ 6.19 µM) | 25 µg/mL (≈ 51.6 µM) | 25 min | 16 min | 11 min | Lag time before ATP [1, 5]: 50 min; Lag time before ATP [1, 9]: 8 min; Lag before ATP release (shortest, incompressible value) ([1]; LB, 37° C.): ~4.7 min
CCn1cc(C(=O)O)c(=O)c2ccc(C)nc21 [Nalidixic acid] |  |  |  |  |  | MIC (Escherichia coli MG1655; MG1655, read-out: MIC in LB): 256 µg/mL (≈ 1100 µM); MIC (Escherichia coli MG1655; MG1655, read-out: MIC in MOPS glucose 0.4%): 256 µg/mL (≈ 1100 µM); Lag time before ATP ([1]; antibiotic at 16 μg/mL, LB, 37° C.): 127.3 min; Lag time before ATP ([1]; antibiotic at 32 μg/mL, LB, 37° C.): 114.1 min; Lag time before ATP ([1]; antibiotic at 64 μg/mL, LB, 37° C.): 88.9 min; Lag time before ATP ([1]; antibiotic at 128 μg/mL, LB, 37° C.): 79.1 min; Lag time before ATP ([1]; antibiotic at 258 μg/mL, LB, 37° C.): 50.8 min; Lag time before ATP ([1]; antibiotic at 516 μg/mL, LB, 37° C.): 46.4 min
O=C1CN(/N=C/c2ccc([N+](=O)[O-])o2)C(=O)N1 [Nitrofurantoin] | 50 µg/mL (≈ 210 µM) | 50 µg/mL (≈ 210 µM) |  |  |  | 
CO[C@@H]1[C@@H](OC(N)=O)[C@@H](O)[C@H](Oc2ccc3c(O)c(NC(=O)c4ccc(O)c(CC=C(C)C)c4)c(=O)oc3c2C)OC1(C)C [Novobiocin] |  | 200 µg/mL (≈ 326 µM) |  |  |  | 
CC1COc2c(N3CCN(C)CC3)c(F)cc3c(=O)c(C(=O)O)cn1c23 (stereo not drawn) [Ofloxacin] | 4 µg/mL (≈ 11.1 µM) | 4 µg/mL (≈ 11.1 µM) |  |  |  | Lag time of ATP release in minimal medium compared to rich medium (factor of decrease) ([1]; MOPS minimal medium vs LB): 2; Lag time before ATP ([1]; antibiotic at 1 μg/mL, LB, 37° C.): 105 min; Lag time before ATP ([1]; antibiotic at 2 μg/mL, LB, 37° C.): 95 min; Lag time before ATP ([1]; antibiotic at 4 μg/mL, LB, 37° C.): 84 min; Lag time before ATP ([1]; antibiotic at 8 μg/mL, LB, 37° C.): 77 min; Lag before ATP release (shortest, incompressible value) ([1]; LB, 37° C.): 77 min
CCN1CCN(C(=O)N[C@@H](C(=O)N[C@@H]2C(=O)N3[C@@H]2SC(C)(C)[C@@H]3C(=O)O)c2ccccc2)C(=O)C1=O [Piperacillin] |  | 200 µg/mL (≈ 386 µM) |  |  |  | 
Cc1cc(NS(=O)(=O)c2ccc(N)cc2)no1 [Sulfamethoxazole] | 1600 µg/mL (≈ 6320 µM) |  |  |  |  | 
